Experimental data: EP1480941B1, “UREA DERIVATIVES AS HIV ASPARTYL PROTEASE INHIBITORS” (priority 2002, dated 2003)
Like-named read-outs stand apart in the source and are kept apart here.

Target: HIV protease (Human immunodeficiency virus type 1 group M subtype B, UniProt P04585)
Test: Enzymatic (fluorometric FRET) assay for determining the inhibition constant (Ki)
Assay type: biochemical
Conditions: EDANS/DABCYL substrate, equation of Henderson
Description: Enzymatic assay for determining the inhibition constant (Ki) of synthetic compounds targeting the HIV protease
This is a fluorometric assay based on the cleavage by protease of a substrate carrying a donor group (EDANS) and an acceptor group (DABCYL) on each side of the cleavage site, interacting together through fluorescence resonance energy transfer (FRET) as described by Matayoshi et al. (Science 247:[…], 1990).
After calculation of Vo and Vi, the inhibition constant (Ki) of the compound is determined using the equation of Henderson: (Vo)/(Vi) = 1 + ([I])/(Kiapp) Where Ki = (Kiapp)/((1 + [S])/(Km)) [formula] where Vo = the enzyme's initial velocity Vi = the enzyme velocity in the presence of the inhibitory compound, [I] = inhibitor concentration, [S] = substrate concentration, Km = Michaelis-Menten constant and Kiapp = apparent Ki
Graphs are traced and the Ki determined using GraphPad Prism software v. 3.0.

Row | SMILES | Ki (Ki) [µM] | Ki (read-out: Ki) [µM]
1 | CC(C)CCN([C@H](CO)CCCCNC(=S)N(Cc1ccc(F)cc1)Cc1ccc2c(c1)OCCO2)S(=O)(=O)c1ccc(N)cc1 [Example 108, (2S) 2-N-(4-aminobenzenesulfonyl)-2-N-(3-methylbutyl)-6-N-[N"(4-fluorobenzyl)-N'-(3,4-ethylenedioxy)benzylaminothiocarbonyl]-2,6-diaminohexanol] | 0.0099 | 
2 | CC(C)CCN([C@H](CO)CCCCNC(=O)N(Cc1ccc2c(c1)OCO2)Cc1cccs1)S(=O)(=O)c1ccc(N)cc1 [Example 87, (2S) 2-N-(4-aminobenzenesulfonyl)-2-N-(3-methylbutyl)-6-N-[N'-(2-thiophenemethyl)-N'-piperonylaminocarbonyl]-2,6-diaminohexanol] | 0.0014 | 
3 | Cc1ccc(S(=O)(=O)N(CC(C)C)[C@H](CCCCNC(=O)N[C@H]2CCc3ccccc32)C(=O)O)cc1 [Example 26, (1R,1'S) Nα-isobutyl-Nα-(4-methylbenzenesulfonyl)-N∈-(indanyl-1'-aminocarbonyl)-R-lysine] |  | > 0.3
4 | Cc1ccc(S(=O)(=O)N(CC(C)C)[C@@H](CCCCNC(=O)N[C@H]2c3ccccc3C[C@H]2O)C(=O)O)cc1 [Example 23, (1S,1'S,2'R) Nα-isobutyl-Nα-(4-methylbenzenesulfonyl)-N∈-(cis-2'-hydroxyindanyl-1'-aminocarbonyl)-S-lysine] |  | > 0.3
5 | COc1ccc(CNC(=O)NCCCC[C@@H](CO)N(CC(C)C)S(=O)(=O)c2ccc(N)cc2)c(OC)c1 [Example 79, (2S) 2-N-(4-aminobenzenesulfonyl)-2-N-isobutyl-6-N-(N'-2,4-dimethoxybenzylaminocarbonyl)-2,6-diaminohexanol] |  | > 0.3
6 | CC(C)CCN([C@H](CO)CCCCNC(=O)N(Cc1ccccc1)Cc1cccc2c1OCO2)S(=O)(=O)c1ccc(N)cc1 [Example 96, (2S) 2-N-(4-aminobenzenesulfonyl)-2-N-(3-methylbutyl)-6-N-[N'-benzyl-N'-(2,3-methylenedioxy)benzylaminocarbonyl]-2,6-diaminohexanol] | 0.004 | 
7 | COc1ccc(CN(Cc2ccc3c(c2)OCO3)C(=O)NCCCC[C@@H](CO)N(CCC(C)C)S(=O)(=O)c2ccc(N)cc2)cc1 [Example 88, (2S) 2-N-(4-aminobenzenesulfonyl)-2-N-(3-methylbutyl)-6-N-[N'-(4-methoxybenzyl)-N'-piperonylaminocarbonyl]-2,6-diaminohexanol] | 0.0029 | 
8 | Cc1ccc(S(=O)(=O)N(CC(C)C)[C@@H](CCCCNC(=O)NCCc2ccc(O)cc2)C(=O)O)cc1 [Example 5, Nα-isobutyl-Nα-(4-methylbenzenesulfonyl)-N∈-[2'-(4-hydroxyphenethyl)aminocarbonyl]-L-lysine] |  | > 0.3
9 | CC(C)CN([C@H](CO)CCCCNC(=O)N(Cc1cccnc1)Cc1cccc(F)c1)S(=O)(=O)c1ccc(N)cc1 [Example 72, (2S) 2-N-(4-aminobenzenesulfonyl)-2-N-isobutyl-6-N-[N'-(3-fluorobenzyl)-N'-(3-picolyl)aminocarbonyl]-2,6-diaminohexanol] |  | > 0.3
10 | Cc1ccc(S(=O)(=O)N(CC(C)C)[C@@H](CCCCNC(=O)NCCc2ccccc2)C(=O)O)cc1 [Example 1, Nα-isobutyl-Nα-(4-methylbenzenesulfonyl)-Nε-(2'-phenethylaminocarbonyl)-L-lysine] | 0.204 | 
11 | Cc1ccc(S(=O)(=O)N(CC(C)C)[C@@H](CCCCNC(=O)N(CCc2ccccc2)Cc2ccccc2)C(=O)O)cc1 [Example 31, Nα-isobutyl-Nα-(4-methylbenzenesulfonyl)-N∈-[(N'-benzyl-N'-phenethyl)aminocarbonyl]-L-lysine] |  | > 0.3
12 | CCC(C)CN(C(CO)CCCCNC(=O)N(Cc1ccc(OC)cc1)Cc1ccc2c(c1)OCO2)S(=O)(=O)c1ccc(N)cc1 [Example 100, (2S) 2-N-(4-aminobenzenesulfonyl)-2-N-(2-methylbutyl)-6-N-[N'-(4-methoxybenzyl)-N'-piperonylaminocarbonyl]-2,6-diaminohexanol] |  | > 0.3
